From US12577232B2, “N-heterocycle substituted tryptamine derivatives and methods of using” (ENVERIC B[…] INC., priority 2024, dated 2026)
pKi: −log10 of the molar value. Read-outs that look alike come from different tables or passages of the source.

Tests used:
[1] = molecular target: T1, 5-HT1A receptor (Homo sapiens, UniProt P08908); test: 5-HT1A receptor radioligand competition assay (SPA, [3H]8-hydroxy-DPAT); format: binding; conditions: 0.5 nM hot 8-hydroxy-DPAT; membranes containing 5-HT1A
T1 construct: purchased Perkin Elmer 6110501400UA
T1 sequence (P08908 1-422): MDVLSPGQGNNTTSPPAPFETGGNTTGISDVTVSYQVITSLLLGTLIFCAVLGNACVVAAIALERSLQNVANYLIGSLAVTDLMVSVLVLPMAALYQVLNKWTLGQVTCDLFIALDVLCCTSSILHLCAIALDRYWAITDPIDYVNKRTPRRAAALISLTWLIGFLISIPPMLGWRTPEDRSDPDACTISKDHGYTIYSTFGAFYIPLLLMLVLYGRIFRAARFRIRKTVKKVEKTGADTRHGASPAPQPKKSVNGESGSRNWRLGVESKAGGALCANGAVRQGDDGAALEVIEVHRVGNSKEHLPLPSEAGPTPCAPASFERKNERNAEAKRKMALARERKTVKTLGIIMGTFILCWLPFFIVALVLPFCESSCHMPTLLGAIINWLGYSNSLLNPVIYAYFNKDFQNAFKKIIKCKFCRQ
Description: 5-HT1A receptor. […] After incubation, the samples were read on a MicroBeta 2 Microplate Counter (perkinelmer.com). Non-specific binding was carried out in the presence of 100 μM of metergoline (M3668-500MG, Sigma-Aldrich). Equilibrium binding constant for 8-hydroxy-DPAT (KD) was determined from a saturation binding curve using one-site saturation binding analysis from GraphPad PRISM software (Version 9.2.0). Test compound was dissolved to 100 mM in dimethylsulfoxide (DMSO), and dilutions were carried out in assay buffer. […] Ki values were calculated from the competition displacement data using the competitive binding analysis from GraphPad PRISM software. […] Conversely, blank preparations lacking any drug (simply termed ‘DMSO’ samples) were used as negative controls, in addition to those containing tryptophan which is not known to bind the 5-HT1A receptor.

[2] = molecular target: T2, 5-HT2A receptor (Homo sapiens, UniProt P28223); test: 5-HT2A receptor radioligand competition assay (SPA, [3H]ketanserin); format: binding; conditions: 1 nM [3H]ketanserin, membranes containing 5-HT2A
T2 construct: purchased PerkinElmer ES-313-M400UA
Description: Competition assays were performed as for 5-HT1A assays with the following differences. […] Determination of non-specific binding was carried out in the presence of […] of spiperone (S7395-250MG, Sigma-Aldrich). Equilibrium binding constant for ketanserin (Kd) was determined from saturation binding curves using the ‘one-site saturation binding analysis’ method in GraphPad PRISM software (Version 9.2.0).

[3] = molecular target: T3, human serotonin transporter (SERT) (Homo sapiens, UniProt P31645); test: biochemical; format: binding
T3 construct: purchased PerkinElmer RBHSTM400UA
Description: A commonly applied SERT binding assay involves competition binding assays employing radiolabelled ligands. […] Radioactive binding assays were carried out using the Scintillation Proximity Assay (SPA). For saturation binding assay, mixtures of 9 μg of membrane containing human SERT was pre-coupled to 1 mg of SPA beads at room temperature in a tube rotator for 1 hour in binding buffer (50 mM Tris-HCl pH7.4, 120 mM NaCl, 5 mM KCl, 1 mM ascorbic acid, 10 μM pargyline HCl). […] After incubation, the samples are read on a MicroBeta 2 Microplate Counter. Non-specific binding was carried out in the presence of 200 μM of clomipramine hydrochloride (C7291-1G, Sigma). Equilibrium binding constant for imipramine (KD) was determined from saturation binding curve using one-site saturation binding analysis from GraphPad PRISM software (Version 9.2.0). All test compounds were dissolved to 100 mM in DMSO and dilutions were carried out in assay buffer. […] Ki values were calculated from the competition displacement data using the competitive binding analysis from GraphPad PRISM software. […] Vehicle (DMSO) without drug was used as a negative control.

[4] = system: human model (NT2) neurons; test: Neuroplastogenicity (neurite outgrowth) assay in NT2 neurons; format: cell-based; parameters: key: a positive (+) designation indicating strong evidence of enhanced neurite outgrowth in drug-treated NT2 cells compared to vehicle-treated cells; a negative (−) designation indicating weak or no evidence of enhanced neurite outgrowth in drug-treated NT2 cells compared to vehicle-treated cells; conditions: 1 or 10 μM, 48 h, visual inspection vs vehicle (0.1% DMSO)
Description: Classic psychedelics such as psilocybin and DMT show potential to treat anxiety and depression, and it has been theorized that such long-term improvements arise because these drugs rapidly and lastingly stimulate neuroplasticity (Calder and Hasler, 2023, Neuropsychopharmacol. 48:104-112). Thus, it was of interest to determine the potential of new compounds as neuroplastogens. Herein, we assess the capacity of various compounds to enhance neurite outgrowth in human model (NT2) neurons.
Human NT2/D1 precursor cells were purchased from the American Type Culture Collection (ATCC, Manassas, VA, USA). Neuronal differentiation was carried out as previously described (Roloff et al., 2015, PloS ONE 10:e0118536) with minor modifications. Firstly, NT2/D1 cells were seeded in T-25 suspension culture flasks (REF #690190, Greiner bio-one, Germany). Each flask contains a minimum of 5×10^6 cells in 10 ml of DMEM/F12 supplemented with 10% fetal bovine serum (FBS), 1% penicillin and streptomycin and 10 μM retinoic acid (RA) medium to start neuronal differentiation. The cells were cultured for 3 days in free floating medium. At the end of the incubation cells were trypsinized and collected by centrifugation, mechanically dispersed, and counted. Counted cells were seeded along Poly D-Lysine (PDL) coated cover slips (12 mm; diameter round, Fisher Scientific; GG-12-PDL) containing a minimum of 0.1×10^5 cells in culture medium without RA. The next day culture medium was replaced with RA medium containing 2% of FBS. These cells cultured for 5 days and two days later, RA medium was changed.
After cells had successfully attached and established along coverslips, the RA medium was replaced with new medium containing 2% FBS and one of the following: (1) test compound (1 or 10 μM), (2) RhoK (ROCK) inhibitor Y-27632 (1 μM) as a positive control (Dihydrochloride; Sigma-Aldrich) (Roloff et al., 2015, PloS ONE 10:e0118536); (3) DMT (1 or 10 μM) as a positive control (Calder and Hasler, 2023, Neuropsychopharmacol. 48:104-112), or (4) vehicle (0.1% DMSO) as a negative control. These cells were incubated for 48 hours under standard conditions (370C, 5% CO2). The cells cultured along coverslips were collected after 48 hours of treatment. The coverslips washed with calcium chloride and magnesium chloride-free phosphate buffered saline (PBS) pH 7.4 (Gibco, #70011-044) and fixed in paraformaldehyde (PFA) 4% in PBS (#J61899, thermoscientific) for 15 min at room temperature (RT) and washed three times with 0.01% of Triton-X100 in PBS (PBST) to remove remaining PFA and to permeabilize the cells. Non-specific binding sites were blocked with 5% of Bovine Serum Albumin (BSA) solution (#9048-46-8, Millipore) in PBST for 60 minutes at RT. Rabbit monoclonal antibody β-III-tubulin (1:5,000, ab52623, Abcam) was applied overnight (O/N) at 4° C. Next day cells are washed three times in PBST, neurons were incubated with secondary antibody Donkey anti-rabbit IgG(H+L) Alexa Fluor™ Plus488 (1:5000 #A32790, Invitrogen) for 1 hour at RT. These coverslips were mounted on Gluoromount-G™, with 4′6-diamidino-2′henylindoldihydrochloride (DAPI) (#E141818, Invitrogen). The immunofluorescence images were analyzed using an Olympus VS110 slide scanner microscope.
B-III-Tubulin immunofluorescence was quantified using ImageJ. Briefly, Corrected Total Cell Fluorescence (CTCF) was acquired for at least ˜8-10 representative cells, where CTCF=Integrated Density−[Area of selected cell*Mean Fluorescence of background]. The CTCF values, referred to herein as ‘signal intensities’, were used to calculate overall means±SD for each treatment. One-Way ANOVA was used to compare treatments. Further, the mean of each treatment was compared with the mean of the control treatment (RA-differentiated cells treated with vehicle, 0.1% DMSO) using Dunnett's multiple comparison procedure. […]

T3 sequence (P31645 whole entry): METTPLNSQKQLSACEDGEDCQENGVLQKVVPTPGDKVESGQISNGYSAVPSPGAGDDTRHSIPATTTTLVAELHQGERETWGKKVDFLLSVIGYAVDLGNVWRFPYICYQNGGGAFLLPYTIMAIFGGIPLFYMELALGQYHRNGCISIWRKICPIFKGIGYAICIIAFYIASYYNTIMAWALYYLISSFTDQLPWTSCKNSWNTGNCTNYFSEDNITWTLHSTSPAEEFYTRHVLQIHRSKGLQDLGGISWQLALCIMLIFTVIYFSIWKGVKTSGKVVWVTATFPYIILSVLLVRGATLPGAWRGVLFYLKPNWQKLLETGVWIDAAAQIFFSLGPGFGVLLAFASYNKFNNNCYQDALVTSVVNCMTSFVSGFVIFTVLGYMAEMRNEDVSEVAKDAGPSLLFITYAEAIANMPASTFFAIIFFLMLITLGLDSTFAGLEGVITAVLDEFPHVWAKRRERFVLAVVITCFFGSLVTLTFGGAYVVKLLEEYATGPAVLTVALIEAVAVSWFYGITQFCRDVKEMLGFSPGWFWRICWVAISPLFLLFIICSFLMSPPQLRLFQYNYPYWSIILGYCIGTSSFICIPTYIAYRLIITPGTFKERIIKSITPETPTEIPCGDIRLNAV
T2 sequence (P28223 whole entry): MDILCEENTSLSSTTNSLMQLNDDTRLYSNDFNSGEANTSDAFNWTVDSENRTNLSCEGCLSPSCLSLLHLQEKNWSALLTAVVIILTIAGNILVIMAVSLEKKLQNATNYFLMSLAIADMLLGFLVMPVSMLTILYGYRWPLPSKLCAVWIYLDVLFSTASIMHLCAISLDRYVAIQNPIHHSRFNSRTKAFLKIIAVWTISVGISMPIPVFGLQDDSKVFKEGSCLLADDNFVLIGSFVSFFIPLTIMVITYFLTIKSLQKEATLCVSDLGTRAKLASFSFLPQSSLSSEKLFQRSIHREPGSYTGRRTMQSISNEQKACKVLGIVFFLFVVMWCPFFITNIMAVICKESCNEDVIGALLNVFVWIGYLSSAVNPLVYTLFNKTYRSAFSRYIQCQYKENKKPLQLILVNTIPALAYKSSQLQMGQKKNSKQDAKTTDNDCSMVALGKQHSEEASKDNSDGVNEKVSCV

## CNC(C)Cc1ccc2c(c1)OCO2 (stereo not drawn) [MDMA, 3,4-methylenedioxymethamphetamine, reference compound]
[1]
  pKi: 4.96
[2]; read-out: 5-HT2A, Ki
  pKi: 4.40
[3]
  pKi: 5.24

## CN(C)CCc1c[nH]c2ccccc12 [DMT, dimethyltryptamine, reference compound]
[2]; 5-HT2A, Ki
  pKi: 5.99
[3]; 1 nM imipramine, membranes containing human SERT, read-out: SERT, Ki
  pKi: 5.59
[4]
  Evidence of neurite outgrowth: Yes (+) or No (−): +
